Data as given in publication PMC3621862, “Re-Directing an Alkylating Agent to Mitochondria Alters Drug Target and Cell Death Mechanism” (PLoS ONE, 2013).
Entries after “also recorded” stand apart in the source; their conditions may differ. Like-named read-outs stand apart in the source and are kept apart here. Each block holds one compound with its values, some of them ahead of it. Square brackets hold non-standard residues; d marks the D form. Peptide text beside a SMILES is read from it. * marks the point of attachment. ξ: configuration not given here. Chlorambucil = O=C(CCCc1ccc(N(CCCl)CCCl)cc1)*; ξCha = NC(CC1CCCCC1)C(=O)O

Experiments:
HeLa cells [1] = assay: Mitochondrial ToxGlo assay, protease activity and cellular ATP levels; type: cell-based; details: 90 minutes, various doses (over EC50)
Protocol: (§1) HeLa cells were seeded at 7500 cells/well a day prior to experiments in white flat clear-bottom 96-well plates (Greiner Bio one). Cells were incubated with Cbl, Cbl conjugates, staurosporin or digitonin as appropriate at indicated concentrations. Cellular ATP levels and protease activity were measured after a 90 minute incubation using the Mitochondrial ToxGlo assay (Promega) as per manufacturer's instructions. To assess caspase 3/7 activity, cells were incubated with compound for 6 hours prior to measurement with the Caspase-Glo® 3/7 Assay (Promega) as per manufacturer's instructions.

[2] = tested on: mitochondrial proteins of HL-60 cells; assay: Cbl-conjugate labeling of mitochondrial proteins (immunoblot); type: cell-based; details: HL60 cells, 30 min; biotin-labeled mt-Cbl 1.5 μM or Cbl-TPP 10 uM
Protocol: HL-60 cells (25 million cells) were incubated with biotin-labeled mt-Cbl peptide (Biotin-mt-Cbl) (0, 1.5 μM) or Cbl-TPP (10 uM) for 30 min, after which the cells were collected. The cells were then washed with ice-cold PBS, and their mitochondria were isolated using Mitochondrial Isolation Kit for Mammalian Cells (Thermo Scientific). The mitochondrial pellets were then lysed using RIPA buffer plus protease inhibitors for 30 min. at 4°C and the total protein concentration determined using BCA assay. Lysates (10 μg of total protein) were then loaded onto 7% gels and run at 30 V for 30 min. and 150 V for 1 hour using a tris-tricine buffer system (Cathode buffer: 0.1 M Tris, 0.1 M Tricine, and 0.1% SDS, Anode buffer: 0.2 M Tris-Cl, pH8.9). Immunoblotting was continued as described previously using biotin antibody to detect the biotin tag on mt-Cbl or TPP antibody to detect Cbl-TPP.

[3] = tested on: 143B cells and 143B ρ° cells; assay: CCK-8 cell viability in 143B parental and ρ° cells; type: cell-based; details: overnight incubation, various doses
[4] = Alkylation activity with 4-(4-nitrobenzyl)pyridine; details: absorbance of 4-(4-nitrobenzyl)pyridine
From the text: Supplementary file pone.0060253.s005.pdf: Figure S5 Characterization of Cbl-TPP. (a) Chemical structure of Cbl-TPP . Cbl was conjugated to a triphenylphosphonium ion to generate Cbl-TPP. (b) Alkylation activity of Cbl, mt-Cbl and Cbl-TPP.

mtDNA of HL-60 cells = assay: Cbl-conjugate labeling of mtDNA (dot blot with TPP antibody); type: cell-based; details: 10 uM, 30 min
Protocol: HL-60 cells (25 million cells) were incubated with Cbl-TPP (10 uM) for 30 min, after which the cells were collected. The cells were then washed with ice-cold PBS, and their mitochondria were isolated using Mitochondrial Isolation Kit for Mammalian Cells (Thermo Scientific). The mtDNA was extracted from the mitochondrial pellets using AllPrep DNA/RNA Mini Kit (QIAGEN). DNA concentration was measured using a NanoDrop 1000 Spectrophotometer (Thermo Scientific) and then normalized (10 ng/μl). After this, a nitrocellulose membrane was spotted with untreated and treated DNA and UV crosslinked using UV Stratalinker 1800 (Stratagene) The membrane was blocked with 5% BSA-TBST for 1 hr at room temperature and then probed with TPP antibody (1∶5000) at 4°C overnight. Then the membrane was washed and visualized with chemiluminescence detection (GE Amersham).

[5] = Pharmacokinetic study, plasma levels by HPLC-MS/MS; type: in vivo; details: mouse, ip, CD1 mice, single dose 10 mg/kg intraperitoneal; for AUC: unit inferred
Protocol: Animal handling and dose administration was performed by Kard Scientific (Beverly, MA). Six CD1 mice were treated with a single dose of 10 mg/kg mt-Cbl or Cbl via intraperitoneal injection. Blood samples were collected at 15 min, 30 min, 1 h, 2 h, 4 h and 8 h in heparin-treated tubes. Samples were kept on ice until centrifugation at 1,500 rpm for 20 min, 4°C and the resulting plasma supernatants were transferred to fresh tubes. Plasma proteins were precipitated with four volumes of ice-cold acetonitrile and spun at 10,000×g for 10 min, 4°C. The resulting supernatant was analyzed via HPLC-MS/MS to determine plasma concentrations of Cbl and mt-Cbl.

Maximal tolerated dose = details: mouse, in vivo, ip; NOD/SCID mice, intraperitoneal
Protocol: Non-obese diabetic/severe combined immunodeficiency (NOD/SCID) mice were treated intraperitoneally with increasing concentrations of Cbl (10–500 mg/kg) or mt-Cbl (10–50 mg/kg). Animals were monitored daily for weight loss, lethargy and other signs of physical discomfort. […] All animal studies were carried out according to the regulations of the Canadian Council on Animal Care and with the approval of the Ontario Cancer Institute Animal Ethics Review board or the Faculty of Medicine Animal Care Committee at the University of Toronto.

[6] = Rate of hydrolysis in saline or plasma (HPLC-MS/MS); type: in vitro ADME, mouse; details: 37°C
Protocol: Stability of mt-Cbl and MPP in mouse plasma: Thiazole orange-labelled conjugates were incubated in mouse plasma for three weeks at room temperature. The stability of these compounds was then assessed via reverse-phase HPLC. A single peak with the identical retention time to a fresh conjugate control was considered to be a positive result for stability in mouse plasma. Rate of mt-Cbl and Cbl hydrolysis in saline or plasma: Cbl and mt-Cbl were incubated in saline or plasma for 0 h, 0.5 h, 1 h, 1.5 h, 2 h, 2.5 h and 3 h at 37°C. Following this, plasma proteins were precipitated in four volumes of ice-cold acetonitrile and centrifuged at 10,000×g for 10 min, 4°C. The resulting supernatant was analyzed via HPLC-MS/MS to determine active drug concentrations in each sample.

[7] = Biodistribution in K562 xenograft mice; type: in vivo, mouse; details: K562 xenograft NOD/SCID mice; mt-Cbl 15 mg/kg, Cbl 100 mg/kg i.p. daily for 10 days
Protocol: K562 cells (3×10^6) were injected subcutaneously into the flanks of ten NOD/SCID mice (Ontario Cancer Institute, Toronto, ON). Palpable tumours were formed 7 days after injection and mice were then treated daily for 10 days with Cbl (100 mg/kg) or mt-Cbl (15 mg/kg) by intraperitoneal injection. Mice were sacrificed 17 days after injection of cells and organs were excised for analysis of Cbl and mt-Cbl biodistribution profiles. The liver, kidneys, spleen, heart, lungs and brain were removed from mice following sacrifice and immediately frozen in dry ice until analysis. Tissues were homogenized in four volumes of ice-cold acetonitrile and centrifuged at 10,000×g for 10 min, 4°C. The resulting supernatant was analyzed via HPLC-MS/MS to determine drug concentrations in each tissue.

[8] = tested on: caspase 3/7 activity in HeLa cells; assay: Caspase-Glo 3/7 activity assay; type: cell-based; details: 6 hours
Protocol: as §1

[9] = tested on: caspase-3 and PARP-1 cleavage in HeLa cells; type: cell-based
leukemia = tested on: leukemia; set-up: method as in PMID 8241831; details: cited from earlier work
[10] = in water; cited from earlier work
mouse livers = assay: Liver toxicity: H&E histology and plasma liver enzymes; type: in vivo; details: mt-Cbl 15 mg/kg, Cbl 3.7 mg/kg every other day for 21 days
Protocol: Mice were treated every other day with equimolar doses of either mt-Cbl (15 mg/kg), Cbl (3.7 mg/kg) or vehicle control for 21 days by Kard Scientific (Beverly, MA). Following sacrifice, mouse livers and K562 xenograft tumors were fixed in 10% formalin overnight and then transferred to 70% ethanol. Samples were then paraffin-embedded, sectioned and stained in a standard manner by the Pathology Research Program Laboratory at Toronto General Hospital. Biotin-conjugated secondary antibodies, avidin horseradish peroxidase and the chromogenic diaminobenzidine tetrahydrochloride (DAB) were used for detection. Slides were imaged at 20× and then analyzed using Aperio ImageScope Software (Aperio Technologies, Vista, California). Positive pixels were identified and counted using the Positive Pixel Count V9 algorithm in this software. Quantification was performed on ten representative squares of 2500×2500 μm each and an average was calculated. % Positive Pixels was determined by dividing the positive pixel count by the total number of pixels analyzed. A standard hematoxylin and eosin (H&E) staining was performed on liver sections and these were reviewed for hepatotoxicity and injury by a pathologist with liver expertise. In addition, liver toxicity was evaluated though determination of levels of specific liver enzymes. Mice were treated every other day with equimolar doses of either mt-Cbl (15 mg/kg), Cbl (3.7 mg/kg) or vehicle control for 21 days. Three days after the final dose, mouse plasma samples were tested for levels of bilirubin, alkaline phosphatase and aspartate transaminase in a standard manner.

[11] = Stability in mouse plasma over three weeks (HPLC); details: three-week incubation, HPLC single peak
HeLa cells [12] = details: 18 hours treatment

Stability in mouse plasma: stable
SMILES: CC(=O)NC(CC1CCCCC1)C(=O)N[C@H](CCCNC(=N)N)C(=O)NC(CC1CCCCC1)C(=O)N[C@H](CCCNC(=N)N)C(=O)NC(CC1CCCCC1)C(=O)N[C@H](CCCNC(=N)N)C(N)=O (stereo partly drawn) [MPP] (Ac-[ξCha][dR][ξCha][dR][ξCha][dR]-NH2; N-terminus and C-terminus assumed)

SMILES: O=C(CCCc1ccc(N(CCCl)CCCl)cc1)NCCC[P+](c1ccccc1)(c1ccccc1)c1ccccc1 [Cbl-TPP]
Cellular ATP level (HeLa cells [1]): drastic drop in ATP cellular levels
Protease activity (HeLa cells [1]): significant increase in protease activity
Alkylation of mitochondrial proteins [2]: Alkylation of both mtDNA and proteins
Toxicity in 143B parental versus mtDNA-free ρ° derivative [3]: overlapping toxicity profiles
Alkylation activity (rate of alkylation) [4]: retained alkylation activity very similar to that observed with the MPP conjugated form of mt-Cbl; also recorded: reduces its alkylation activity
Alkylation of mtDNA (mtDNA of HL-60 cells): Alkylation of both mtDNA and proteins

SMILES: O=C(O)CCCc1ccc(N(CCCl)CCCl)cc1 [Cbl, chlorambucil, reference compound]
Cmax [5]: 200 ng/mL
half-life [5]: 0.75 h
AUC [5]: 147 ng·h/mL
MTD (Maximal tolerated dose): 400 mg/kg
half-life ([6]; mouse plasma): 1 h
half-life ([6]; mouse, saline): 1 h
Accumulation in liver [7]: site of greatest accumulation
Levels in kidneys [7]: very low levels
Caspase-3/7 activity [8]: increase in caspase-3/7 activity in a dose-dependent manner
Cleavage of caspase-3 and PARP-1 ([9]; HeLa, Cbl 750 μM, 8 hours, Q-VD-Oph 20 μM pretreatment): induced the cleavage and activation of caspase-3
Initial response rate in patients (leukemia): 40–60%
half-life [10]: 0.5 h
Liver histology (H&E) (mouse livers): histologically normal with no features of injury or toxicity
Plasma levels of bilirubin, alkaline phosphatase and aspartate aminotransferase (mouse livers): No significant change

SMILES: CC(C)[C@H](NC(=O)c1ccc2ccccc2n1)C(=O)N[C@@H](CC(=O)O)C(=O)COc1c(F)cccc1F [Q-VD-Oph]
Cleavage of caspase-3 and PARP-1 [9]: suppressed the effects of Cbl treatment

SMILES: N=C(N)NCCC[C@@H](NC(=O)C(CC1CCCCC1)NC(=O)[C@@H](CCCNC(=N)N)NC(=O)C(CC1CCCCC1)NC(=O)[C@@H](CCCNC(=N)N)NC(=O)C(CC1CCCCC1)NC(=O)CCCc1ccc(N(CCCl)CCCl)cc1)C(N)=O (stereo partly drawn) [mt-Cbl] (Chlorambucil-[ξCha][dR][ξCha][dR][ξCha][dR]-NH2)
Stability in mouse plasma [11]: stable in mouse plasma
Cmax ([5]; in vivo): 800 ng/mL
half-life ([5]; in vivo): 6 h
AUC ([5]; in vivo): 3560 ng·h/mL
MTD (Maximal tolerated dose): 50 mg/kg
Half-life (hydrolysis) ([6]; mouse plasma): 1 h
half-life ([6]; mouse, plasma, saline): 1 h
Accumulation in liver [7]: site of greatest accumulation
Accumulation in tumors compared to Cbl [7]: ~250 fold
Levels in kidneys [7]: very low levels
LD50 (HeLa cells [12]; HeLa after siEXOG transfection): 4.7 µM
LD50 (HeLa cells [12]; HeLa after siNT (untargeted siRNA control) transfection): 3.5 µM
Liver histology (H&E) (mouse livers): histologically normal with no features of injury or toxicity
Plasma levels of bilirubin, alkaline phosphatase and aspartate aminotransferase (mouse livers): No significant change
